Here are results for four compounds from publication PMC10004634 (PLOS ONE, 2023).

Targets include BRAF (Homo sapiens, UniProt P15056); CDK2 (Homo sapiens, UniProt P24941); FGFR3 (Homo sapiens, UniProt P22607).
Assay in all cases: biochemical
Parameters in all cases: KINOMEscan scanMAX competition binding, DNA-tagged kinases, qPCR read-out, percent control at 300 nM
(In general: Quantitative PCR measures a nucleic acid by following its amplification.)

A further assay deals with T1, ERK3 (Homo sapiens, UniProt Q16659).
T1 construct: gene MAPK6
T1 sequence (Q16659 whole entry): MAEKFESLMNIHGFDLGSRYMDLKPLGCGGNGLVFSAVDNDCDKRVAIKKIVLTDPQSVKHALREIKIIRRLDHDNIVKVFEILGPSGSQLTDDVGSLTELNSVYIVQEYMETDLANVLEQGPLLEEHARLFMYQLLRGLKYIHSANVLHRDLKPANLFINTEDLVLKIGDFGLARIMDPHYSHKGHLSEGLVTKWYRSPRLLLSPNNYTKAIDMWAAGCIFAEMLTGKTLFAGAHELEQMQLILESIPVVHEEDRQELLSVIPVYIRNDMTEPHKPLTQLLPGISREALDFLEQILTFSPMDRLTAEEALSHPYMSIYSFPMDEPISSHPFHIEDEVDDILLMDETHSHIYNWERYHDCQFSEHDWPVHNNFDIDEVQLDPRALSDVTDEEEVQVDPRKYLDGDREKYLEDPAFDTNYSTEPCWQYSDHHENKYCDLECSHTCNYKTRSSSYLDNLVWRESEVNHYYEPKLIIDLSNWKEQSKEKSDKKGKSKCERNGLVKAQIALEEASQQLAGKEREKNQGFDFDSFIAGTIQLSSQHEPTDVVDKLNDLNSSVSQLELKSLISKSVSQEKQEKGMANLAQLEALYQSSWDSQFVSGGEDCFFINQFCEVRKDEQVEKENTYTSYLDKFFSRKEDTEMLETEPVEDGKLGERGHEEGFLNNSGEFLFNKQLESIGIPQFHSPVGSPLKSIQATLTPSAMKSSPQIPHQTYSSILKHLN

Another assay has as its target T2, FLT3(K663Q) (Homo sapiens, UniProt P36888, K663Q).
T2 sequence (P36888 1-993 K663Q): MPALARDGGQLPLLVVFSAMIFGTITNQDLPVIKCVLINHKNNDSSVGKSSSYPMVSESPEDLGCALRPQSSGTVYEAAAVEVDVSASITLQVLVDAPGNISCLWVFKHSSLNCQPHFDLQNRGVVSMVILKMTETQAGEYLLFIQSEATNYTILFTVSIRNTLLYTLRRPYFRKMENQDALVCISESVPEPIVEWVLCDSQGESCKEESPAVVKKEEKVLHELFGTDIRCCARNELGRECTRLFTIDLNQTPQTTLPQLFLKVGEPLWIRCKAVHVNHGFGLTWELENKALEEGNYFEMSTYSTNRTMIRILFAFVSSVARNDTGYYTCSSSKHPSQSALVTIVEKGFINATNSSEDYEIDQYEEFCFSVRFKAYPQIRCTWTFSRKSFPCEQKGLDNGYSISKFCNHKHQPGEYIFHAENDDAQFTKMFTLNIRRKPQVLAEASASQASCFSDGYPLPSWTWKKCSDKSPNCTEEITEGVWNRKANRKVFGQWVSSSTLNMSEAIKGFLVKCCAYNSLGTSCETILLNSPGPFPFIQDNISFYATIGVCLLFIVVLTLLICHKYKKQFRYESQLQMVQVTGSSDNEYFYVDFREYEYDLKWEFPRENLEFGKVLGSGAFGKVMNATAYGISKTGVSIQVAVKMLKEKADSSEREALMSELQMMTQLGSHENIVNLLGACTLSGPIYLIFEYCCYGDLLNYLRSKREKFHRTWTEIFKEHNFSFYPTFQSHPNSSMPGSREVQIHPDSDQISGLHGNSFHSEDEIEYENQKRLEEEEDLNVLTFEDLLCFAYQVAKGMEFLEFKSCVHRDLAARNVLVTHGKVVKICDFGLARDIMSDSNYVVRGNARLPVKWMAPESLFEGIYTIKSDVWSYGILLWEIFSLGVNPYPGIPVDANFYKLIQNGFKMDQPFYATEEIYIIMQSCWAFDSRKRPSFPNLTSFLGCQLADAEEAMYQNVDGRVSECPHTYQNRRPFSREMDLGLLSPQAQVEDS

A further assay concerns the target T3, PIK4CB (Homo sapiens, UniProt Q9UBF8).
T3 construct: gene PI4KB

A further assay deals with T4, RIOK3 (Homo sapiens, UniProt O14730).
T4 sequence (O14730 1-519): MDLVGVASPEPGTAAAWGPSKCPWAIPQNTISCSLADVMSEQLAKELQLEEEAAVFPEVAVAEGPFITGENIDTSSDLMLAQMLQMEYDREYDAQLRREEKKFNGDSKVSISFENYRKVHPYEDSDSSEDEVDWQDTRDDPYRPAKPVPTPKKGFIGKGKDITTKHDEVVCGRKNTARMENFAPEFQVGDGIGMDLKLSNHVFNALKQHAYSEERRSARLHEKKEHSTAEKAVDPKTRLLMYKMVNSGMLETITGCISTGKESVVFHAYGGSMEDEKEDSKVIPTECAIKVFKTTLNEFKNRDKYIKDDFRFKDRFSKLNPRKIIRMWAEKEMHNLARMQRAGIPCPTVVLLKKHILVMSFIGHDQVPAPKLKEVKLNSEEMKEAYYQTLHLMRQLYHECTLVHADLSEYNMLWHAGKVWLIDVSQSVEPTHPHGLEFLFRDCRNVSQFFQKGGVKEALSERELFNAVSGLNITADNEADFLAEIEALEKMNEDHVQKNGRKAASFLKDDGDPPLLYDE

[1] abbreviates: read-out: Percent control / Zanubrutinib.
The mark [2] stands for this setting: read-out: Percent control / Tirabrutinib.
The mark [3] stands for this setting: read-out: Percent control / Ibrutinib.
The mark [4] stands for this setting: read-out: Percent control / Acalabrutinib.

Where two headings read alike, the source gives them in different places.

Chain of BRAF (P15056 whole entry): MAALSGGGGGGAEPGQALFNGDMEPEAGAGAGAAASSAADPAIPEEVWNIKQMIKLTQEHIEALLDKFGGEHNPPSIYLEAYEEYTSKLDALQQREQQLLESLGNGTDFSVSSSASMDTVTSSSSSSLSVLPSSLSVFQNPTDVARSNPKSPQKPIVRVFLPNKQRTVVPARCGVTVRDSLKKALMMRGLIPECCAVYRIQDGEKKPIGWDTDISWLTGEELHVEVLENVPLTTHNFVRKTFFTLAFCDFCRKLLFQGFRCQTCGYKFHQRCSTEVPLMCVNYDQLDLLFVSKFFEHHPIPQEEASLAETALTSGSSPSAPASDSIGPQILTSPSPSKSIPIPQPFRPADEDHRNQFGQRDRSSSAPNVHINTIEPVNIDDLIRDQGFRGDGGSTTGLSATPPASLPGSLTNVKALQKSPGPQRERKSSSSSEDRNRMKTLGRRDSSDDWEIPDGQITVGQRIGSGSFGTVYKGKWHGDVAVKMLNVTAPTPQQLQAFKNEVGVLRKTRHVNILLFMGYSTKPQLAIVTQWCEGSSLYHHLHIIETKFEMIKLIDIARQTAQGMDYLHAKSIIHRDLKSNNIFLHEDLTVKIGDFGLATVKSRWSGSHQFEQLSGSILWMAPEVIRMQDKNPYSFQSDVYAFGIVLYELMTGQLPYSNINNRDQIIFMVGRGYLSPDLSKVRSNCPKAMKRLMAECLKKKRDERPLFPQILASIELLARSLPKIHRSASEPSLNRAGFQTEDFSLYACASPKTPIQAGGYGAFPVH
Chain of FGFR3 (P22607 whole entry): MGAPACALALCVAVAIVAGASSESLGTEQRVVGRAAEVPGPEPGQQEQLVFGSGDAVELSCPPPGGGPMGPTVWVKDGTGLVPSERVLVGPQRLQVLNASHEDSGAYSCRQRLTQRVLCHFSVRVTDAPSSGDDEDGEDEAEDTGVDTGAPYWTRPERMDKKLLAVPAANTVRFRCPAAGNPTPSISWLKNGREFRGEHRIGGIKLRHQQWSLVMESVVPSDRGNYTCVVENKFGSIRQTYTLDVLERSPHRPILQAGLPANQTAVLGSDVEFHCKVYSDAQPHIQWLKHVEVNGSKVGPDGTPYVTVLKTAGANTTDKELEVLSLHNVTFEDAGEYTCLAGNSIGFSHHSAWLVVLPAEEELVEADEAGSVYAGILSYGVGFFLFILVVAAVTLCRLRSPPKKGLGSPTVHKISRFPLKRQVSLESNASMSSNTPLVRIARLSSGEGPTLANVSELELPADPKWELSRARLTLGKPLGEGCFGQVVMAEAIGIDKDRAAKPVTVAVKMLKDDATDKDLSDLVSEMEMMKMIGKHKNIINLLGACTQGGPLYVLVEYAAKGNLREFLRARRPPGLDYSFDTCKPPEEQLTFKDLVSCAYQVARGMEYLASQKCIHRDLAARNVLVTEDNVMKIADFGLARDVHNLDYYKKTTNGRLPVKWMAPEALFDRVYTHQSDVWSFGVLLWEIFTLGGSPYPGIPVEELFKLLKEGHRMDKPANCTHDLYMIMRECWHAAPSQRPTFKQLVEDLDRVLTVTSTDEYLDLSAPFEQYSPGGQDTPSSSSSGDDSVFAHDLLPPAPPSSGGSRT
T3 sequence (Q9UBF8 whole entry): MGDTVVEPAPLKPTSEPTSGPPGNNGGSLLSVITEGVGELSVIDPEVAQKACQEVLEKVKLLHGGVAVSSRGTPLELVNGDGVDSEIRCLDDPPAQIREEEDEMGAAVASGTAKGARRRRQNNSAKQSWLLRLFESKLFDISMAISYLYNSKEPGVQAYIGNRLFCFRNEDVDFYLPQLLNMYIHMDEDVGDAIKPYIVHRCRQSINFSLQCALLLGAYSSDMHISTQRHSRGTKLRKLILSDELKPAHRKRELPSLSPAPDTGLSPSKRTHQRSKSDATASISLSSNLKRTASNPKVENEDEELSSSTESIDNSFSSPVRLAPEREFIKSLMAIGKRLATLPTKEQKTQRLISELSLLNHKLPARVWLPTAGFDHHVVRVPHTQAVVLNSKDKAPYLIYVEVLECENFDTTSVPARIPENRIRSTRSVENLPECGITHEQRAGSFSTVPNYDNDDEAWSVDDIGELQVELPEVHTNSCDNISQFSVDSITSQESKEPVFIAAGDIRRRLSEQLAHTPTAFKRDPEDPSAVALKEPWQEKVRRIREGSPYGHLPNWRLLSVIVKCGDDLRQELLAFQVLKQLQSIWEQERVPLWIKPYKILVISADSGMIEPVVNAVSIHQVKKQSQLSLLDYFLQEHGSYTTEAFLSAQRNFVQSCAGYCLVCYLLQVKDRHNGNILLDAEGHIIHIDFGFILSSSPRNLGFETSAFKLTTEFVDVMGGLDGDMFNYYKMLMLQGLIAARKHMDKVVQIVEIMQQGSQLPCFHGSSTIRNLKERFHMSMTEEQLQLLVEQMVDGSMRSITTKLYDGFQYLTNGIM

On to `C=CC(=O)N1CCC([C@@H]2CCNc3c(C(N)=O)c(-c4ccc(Oc5ccccc5)cc4)nn32)CC1` [Zanubrutinib], for which the remaining binding at 0.3 µM at BRAF (setting [1]) amounted to 97%; on CDK2 (setting [1]), 99%; on ERK3 (setting [1]), 98%; on FGFR3 (setting [1]), 93%; on FLT3(K663Q) (setting [1]) it was 61%; on PIK4CB (setting [1]), 94%. For the same compound, the remaining binding at 0.3 µM on RIOK3 (setting [1]) is 100%.

In the case of `CC#CC(=O)N1CC[C@@H](n2c(=O)n(-c3ccc(Oc4ccccc4)cc3)c3c(N)ncnc32)C1` [Tirabrutinib], the remaining binding at 0.3 µM is 82% on CDK2 (setting [2]), 90% on ERK3 (setting [2]), 92% at FGFR3 (setting [2]) and 79% on PIK4CB (setting [2]).

On to `C=CC(=O)N1CCC[C@@H](n2nc(-c3ccc(Oc4ccccc4)cc3)c3c(N)ncnc32)C1` [Ibrutinib], for which the remaining binding at 0.3 µM on BRAF (setting [3]) turned out to be 97%; on FLT3(K663Q) (setting [3]) it was 45%; on RIOK3 (setting [3]), 89%.

Turning to `CC#CC(=O)N1CCC[C@H]1c1nc(-c2ccc(C(=O)Nc3ccccn3)cc2)c2c(N)nccn12` [Acalabrutinib], the remaining binding at 0.3 µM on BRAF (setting [4]) was found to be 85%; at CDK2 (setting [4]), 86%; at ERK3 (setting [4]) it was 91%; on FGFR3 (setting [4]), 95%; on FLT3(K663Q) (setting [4]), 87%; on PIK4CB (setting [4]), 72%. In addition, on RIOK3 (setting [4]), the remaining binding at 0.3 µM worked out at 90%.
